Laboratory results taken from publication PMC7582727, “Functional Impact of BeKm-1, a High-Affinity hERG Blocker, on Cardiomyocytes Derived from Human-Induced Pluripotent Stem Cells” (International Journal of Molecular Sciences, 2020).
Positions of bridges follow the written chain, without caps; N, C: chain ends. Residues, ends and D or L forms follow the SMILES beside them.

What was measured:
[1] = target: human hERG channel (Kv11.1) (Homo sapiens, UniProt Q12809); test: in vitro
Procedure: (§1) Voltage pulses and whole-cell recordings were achieved using the PatchControl384 v1.5.3 software (Nanion Technologies, Munich, Germany) and the Biomek v1.0 interface (Beckman Coulter, Villepinte, France). […] After cell catching, sealing, whole-cell formation, liquid application, recording, and data acquisition were all performed sequentially and automatically. […] A single concentration of peptide was tested on each cell for building the full-inhibition curves.

[2] = target: human hERG channel (Homo sapiens, UniProt Q12809); test: in vitro; conditions: human
human hERG channel, sequence (Q12809 whole entry): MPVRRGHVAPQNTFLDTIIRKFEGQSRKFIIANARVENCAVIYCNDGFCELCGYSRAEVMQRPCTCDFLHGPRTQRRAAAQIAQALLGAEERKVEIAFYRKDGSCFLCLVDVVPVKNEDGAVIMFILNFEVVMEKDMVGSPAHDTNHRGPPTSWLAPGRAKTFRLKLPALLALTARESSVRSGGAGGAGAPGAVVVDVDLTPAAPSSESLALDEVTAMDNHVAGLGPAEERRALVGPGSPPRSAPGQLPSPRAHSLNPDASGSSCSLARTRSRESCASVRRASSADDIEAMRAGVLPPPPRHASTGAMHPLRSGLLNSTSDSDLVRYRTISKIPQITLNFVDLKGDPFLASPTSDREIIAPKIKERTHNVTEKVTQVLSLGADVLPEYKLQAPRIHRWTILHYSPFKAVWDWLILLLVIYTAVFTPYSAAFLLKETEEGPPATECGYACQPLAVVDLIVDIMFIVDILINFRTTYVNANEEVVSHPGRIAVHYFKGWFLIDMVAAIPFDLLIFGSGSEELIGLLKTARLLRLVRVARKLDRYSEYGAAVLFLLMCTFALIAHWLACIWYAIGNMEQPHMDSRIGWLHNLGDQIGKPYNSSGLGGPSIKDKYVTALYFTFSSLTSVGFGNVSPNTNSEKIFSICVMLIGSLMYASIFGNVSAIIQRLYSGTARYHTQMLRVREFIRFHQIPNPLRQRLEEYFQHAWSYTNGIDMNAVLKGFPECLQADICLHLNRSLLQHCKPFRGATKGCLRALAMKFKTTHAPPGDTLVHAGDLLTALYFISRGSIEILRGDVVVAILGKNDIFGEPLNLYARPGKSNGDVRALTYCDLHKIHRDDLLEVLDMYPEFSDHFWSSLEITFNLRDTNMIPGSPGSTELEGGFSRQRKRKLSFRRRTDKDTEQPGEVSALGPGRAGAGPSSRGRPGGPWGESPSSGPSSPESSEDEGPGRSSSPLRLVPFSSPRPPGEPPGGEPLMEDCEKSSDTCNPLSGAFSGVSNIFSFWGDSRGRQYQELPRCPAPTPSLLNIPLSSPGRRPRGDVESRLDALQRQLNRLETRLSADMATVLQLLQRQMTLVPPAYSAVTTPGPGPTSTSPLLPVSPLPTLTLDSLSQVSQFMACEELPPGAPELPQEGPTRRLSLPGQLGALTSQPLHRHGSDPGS
Procedure: as §1

[3] = test system: hiPS-CMs monolayers; test: Contraction (impedance) of hiPS-CM monolayers (CardioExcyte 96); assay type: cell-based, human
Procedure: The results described above on the excitability alterations of hiPS-CMs indicate that BeKm-1 should also impair excitation–contraction coupling (ECC) in these cells. In spontaneously beating cardiomyocytes, the toxin should impact the contractility in a coherent manner with spontaneous APs and CaT. We investigated the contractions using the CardioExcyte 96 system. […] Coherent with the proarrhythmic properties of 2 nM of BeKm-1, both the mean SD1, the standard deviation of instantaneous contraction-to-contraction interval variability, and SD2, the continuous long-term interval variability, increased by 2- and 1.7-fold, respectively (Figure S5I).
(§2) hiPS-CMs: All experiments were performed on the human-induced pluripotent stem cell (hiPSC) clone C2a that has been previously characterized, including cardiac differentiation and electrophysiology data. Cells were expanded on stem cell-qualified matrigel-coated plates (0.05 mg/mL; BD Bioscience, Le Pont de Claix, France) and cultured in StemMACS iPS-BREW XF medium (Miltenyi Biotec, Paris, France). Cells were passaged every […] using Gentle Cell Dissociation Buffer (StemCell Technologies, Grenoble, France). Prior to differentiation, cells were cultured as a monolayer in StemMACS iPS-brew supplemented with 1 × Y-27632 Rho-associated, coiled-coil containing protein kinase (ROCK) inhibitor (StemCell Technologies, Grenoble, France). When hiPSCs reached proper confluence, they were differentiated into cardiomyocytes using previously described « Matrix sandwich » protocol. At day 20 ± 1 of differentiation, beating cardiomyocytes were manually dissected and isolated from non-beating cells. Briefly, cardiomyocytes were washed with phosphate-buffered saline (PBS) and treated with TrypLE Express (10x) (Thermo Fisher Scientific, Illkirch-Graffenstaden, France) for 5 min at 37 °C. The enzyme was inactivated by adding RPMI1640 medium containing 20% (vol/vol) KnockOut Serum Replacement (KSR) (Thermo Fisher Scientific, Illkirch-Graffenstaden, France). The supernatant was removed, and cells were suspended in RPMI1640 medium containing 20% (vol/vol) KSR and ROCK inhibitor. Then, the cells were plated on specific supports suitable for functional assessments.
The beating properties and the electrical field potentials of hiPS-CMs were evaluated with a CardioExcyte96 system. After dissociation, hiPS-CMs were seeded on NSP-96 Sensor Plates (Nanion Technologies, Munich, Germany) at a density of 40,000 viable cells per well. Sensor plates were previously coated with 10 µg/mL fibronectin for 1 h at 37 °C. The cells were maintained at 37 °C, and the medium was replaced every 2 days for 1 week. On the day of beating assessment, the whole medium was replaced 4 h prior to experiments, and cells were incubated at 37 °C onto the CardioExcyte96 system. Meanwhile, cells were monitored to ensure the full stabilization of beating parameters until BeKm-1 was tested at various concentrations ([…]). Tfall and Trise were determined as the time between 10% and 90% of contraction or relaxation, respectively. Pulse width (PWx) was determined as the time corresponding to the width of the signal at 90% of relaxation. Electric field potentials (EFPs) were recorded using CardioExcyte96 system. For both contraction and EFPs, 10 sequences of 30 s of acquisition were analyzed before and after BeKm-1 addition. The CardioExcyte system is best to analyze the kinetic parameters of the contractile properties of hiPS-CMs but has intrinsic limitations to assess properly variations in contractile force.

[4] = test system: hiPS-CMs; test: Intracellular Ca^2+ transients in hiPS-CMs (Fluo-4, confocal); assay type: cell-based, human; conditions: 5 nM
Procedure: As Ca^2+ influx abnormalities are likely to be at the root of electrophysiological disorders observed in the presence of BeKm-1, we sought to investigate the effects of this compound on hiPS-CM calcium dynamics. In order to test this, intracellular Ca^2+ transients (CaT) were monitored by confocal microscopy using the Fluo4 Ca^2+-sensitive dye in presence of 5 nM BeKm-1. […] The average interval was raised from 3.3 ± 1.7 sec (n = 8, vehicle) to 4.9 ± 2.2 sec (n = 8, 5 nM BeKm-1) (Figure S4C). In addition, we observed a reduction of CaT amplitude from 1.8 ± 0.2 (n = 8, vehicle) to 0.8 ± 0.2 (n = 8, 5 nM BeKm-1) (Figure S4D). […] The altered shape of the CaT was due to a slower time to peak (1.1 ± 0.1 s with vehicle vs. 2.2 ± 0.4 s with 5 nM BeKm-1, n = 8) (Figure S4E), possibly indicating a slower release from internal stores associated to a reduced entry by VGCC (largely due to the impact of RMP depolarization).
as §2
Calcium transients of hiPS-CMs were evaluated using the Fluo-4 reported dye and a Nikon A1R confocal microscope. Dissociated hiPS-CMs were plated and maintained on µ-slide 8-well IBIDI plates for 12 ± 1 days prior to experiments. On the day of the experiments, cells were loaded for 20 min with 3 µM Fluo-4 AM Ca^2+ indicator (Thermo Fisher Scientific, Illkirch-Graffenstaden, France) in culture medium at 37 °C. Then, to allow complete de-esterification of the Ca^2+ probe, the medium was replaced and cells were re-incubated at 37 °C for another 20 min. All recordings were performed in Tyrode’s solution, cells being placed at 37 °C in an experimental chamber. Confocal microscopy was performed using a Nikon A1R confocal inverted microscope (Nikon Corp, Tokyo, Japan) with a Nikon X60 Plan-Apo numerical aperture 1.4 oil-immersion objective (MicroPICell core facility). Fluo-4 AM was excited using the 488 nm line from an argon laser and fluorescence emission was measured at >505 nm. Images were acquired between 15.5 and 56.4 frames/s in X-Y mode, with a resolution of 1024 × 1024 pixels ([…]).

[5] = test system: rabbit heart; set-up: method as in PMID 21205913; conditions: ref [8]; cited from earlier work
[6] = 2 nM vs vehicle, n = 8 monolayers

human hERG channel (Kv11.1), sequence (Q12809 whole entry): as above

## CC[C@H](C)[C@H](NC(=O)[C@H](CC(=O)O)NC(=O)[C@@H](NC(=O)[C@@H]1CCCN1C(=O)[C@@H](N)CCCNC(=N)N)[C@@H](C)O)C(=O)N[C@@H](CCCCN)C(=O)N[C@H]1CSSC[C@@H]2NC(=O)[C@H](CCCNC(=N)N)NC(=O)CNC(=O)[C@H](CC(N)=O)NC(=O)[C@H]([C@@H](C)O)NC(=O)[C@H](CCCCN)NC(=O)CNC(=O)[C@H](Cc3ccccc3)NC(=O)[C@H](CCCNC(=N)N)NC(=O)[C@H](CO)NC(=O)[C@H](CCCCN)NC(=O)[C@@H]3CSSC[C@@H](C(=O)N[C@@H](Cc4ccccc4)C(=O)O)NC(=O)[C@H](CC(=O)O)NC(=O)[C@H](CSSC[C@H](NC(=O)[C@H](CCC(N)=O)NC(=O)[C@H](Cc4ccc(O)cc4)NC(=O)[C@H](CO)NC(=O)[C@H](CCC(=O)O)NC(=O)[C@H](CO)NC1=O)C(=O)N[C@@H](Cc1ccccc1)C(=O)N1CCC[C@H]1C(=O)N[C@@H](C(C)C)C(=O)N3)NC(=O)[C@H](Cc1ccccc1)NC(=O)CNC(=O)[C@H](CC(N)=O)NC(=O)[C@H](C(C)C)NC2=O [BeKm-1] (H-RPTDIKCSESYQCFPVCKSRFGKTNGRCVNGFCDCF-OH; disulfide 7-28, 13-33, 17-35 (inferred); N-terminus and C-terminus assumed)
[1]; HEK293-hERG, Hill equation fit of dose-response curve
  Hill number, hERG current inhibition: 1.9
[1]; at maximally effective doses of the peptide (100 nM)
  maximal block of hERG currents (plateau): 90%
[2]
  IC50 at 13 min: 1.9 ± 0.3 nM
[3]; 2 nM
  contraction amplitude: not significantly different from the control
  pulse width PW95: significant alteration
  pulse widths PW30, PW70 and PW90: none of the pulse widths (PW) PW30, PW70, and PW90 parameters were significantly altered
[3]; 2 nM vs vehicle
  interbeat interval increase: 16.7%
  slowing of relaxation phase: 19.8%
  slowing of rising phase of contraction: 1.29 -fold
[3]; [6]
  SD1 increase (instantaneous contraction-to-contraction interval variability): 2 -fold
  SD2 increase (continuous long-term interval variability): 1.7 -fold
[3]; 2 nM, 37 °C, vehicle 2.03 ± 0.1 s, n = 8, mean ± SEM
  interbeat interval: 2.37 ± 0.2 s
[3]; 2 nM, 37 °C, vehicle 203.5 ± 11.3 ms, n = 8, mean ± SEM
  duration of rising phase of contraction (Trise): 262.6 ± 16.9 ms
[3]; 2 nM, 37 °C, vehicle 719.2 ± 45.8 ms, n = 8, mean ± SEM
  duration of relaxation phase (Tfall): 862.1 ± 82.0 ms
[3]; 2 nM, Poincaré plot
  interbeat interval and its variability: significantly increased
[4]; 37 °C, vehicle 3.3 ± 1.7 sec, n = 8, mean ± SEM
  average interval between CaT: 4.9 ± 2.2 s
[4]; F/F0 (Figure S4D), vehicle 1.8 ± 0.2, n = 8, mean ± SEM
  CaT amplitude: 0.8 ± 0.2
[4]; Figure S4G
  cytoplasmic Ca^2+ handling (integration of Ca^2+ signals): non-significant decrease
[4]; Poincaré plot, Figure S4B
  variability of CaT intervals: great variability
[4]; tau of decay, Figure S4F
  kinetics of the CaT decay phase: no alterations
[4]; vehicle 1.1 ± 0.1 s, n = 8, mean ± SEM
  CaT time to peak: 2.2 ± 0.4 s
[5]
  QT interval in ECG: prolongs the QT interval
